In ChEMBL document CHEMBL6103587, “Anti-tumor effects of artemisinin-based oligomers: From monomer to trimer as a novel drug-enhancing strategy” (Eur J Med Chem, 2025):
Activity calls are given as the source filed them. No cut-off for these calls is given here.

Columns and labels:
[1] = tested on: MCF7; assay: Antitumor activity against human MCF7 cells assessed as reduction in cell viability incubated for 72 hrs by CCK8 assay; assay type: functional, cell-based; conditions: MCF7, 72 h
[2] = tested on: MCF7; assay: Antitumor activity against human MCF7 cells assessed as decrease in number of viable cells at 0.05 to 0.2 uM incubated for 24 hrs by Hoechst 33342 staining based confocal microscopic analysis; assay type: functional, cell-based; conditions: dose 0.05-0.2 µM
[3] = tested on: MCF7; assay: Antitumor activity against human MCF7 cells assessed as decrease in nuclear volume at 0.05 to 0.2 uM incubated for 24 hrs by Hoechst 33342 staining based confocal microscopic analysis; assay type: functional, cell-based; conditions: dose 0.05-0.2 µM
[4] = tested on: MCF7; assay: Antitumor activity against human MCF7 cells assessed as […] at 0.05 to 0.2 uM incubated for 24 hrs by Hoechst 33342 staining based confocal microscopic analysis; assay type: functional, cell-based; conditions: dose 0.05-0.2 µM
[5] = tested on: MCF7; assay: Inhibition of colony formation in human MCF7 cells assessed as reduction in clone formation rate at 0.05 to 0.2 uM measured after 14 days by giemsa staining based dissection microscopic analysis; assay type: functional, cell-based; conditions: dose 0.05-0.2 µM, time 14.0 day
[6] = tested on: MCF7; assay: Inhibition of colony formation in human MCF7 cells assessed as reduction in number of colonies measured after 14 days by giemsa staining based dissection microscopic analysis; assay type: functional, cell-based; conditions: dose 0.05-0.2 µM, time 14.0 day
[7] = tested on: MCF7; assay: Induction of apoptosis in human MCF7 cells assessed as increase in death ratio at 0.05 to 0.2 uM by Annexin V-FITC/PI staining based flow cytometric analysis; assay type: functional, cell-based; conditions: dose 0.05-0.2 µM
[8] = tested on: Mitochondrial membrane; assay: Induction of mitochondrial membrane potential loss in human MCF7 cells assessed as reduction in JC-1 aggregate formation at 0.05 to 0.2 uM incubated for 48 hrs by JC-1 staining based confocal microscopic analysis; assay type: cell membranes; conditions: dose 0.05-0.2 µM
[9] = tested on: Mitochondrial membrane; assay: Induction of mitochondrial membrane potential loss in human MCF7 cells assessed as increase in JC-1 monomer level at 0.05 to 0.2 uM incubated for 48 hrs by JC-1 staining based confocal microscopic analysis; assay type: cell membranes; conditions: dose 0.05-0.2 µM
[10] = tested on: MCF7; assay: Induction of apoptosis in human MCF7 cells assessed as increase in Bax level at 0.05 to 0.2 uM incubated for 48 hrs by Western blot analysis; assay type: functional, cell-based; conditions: dose 0.05-0.2 µM
[11] = tested on: MCF7; assay: Induction of apoptosis in human MCF7 cells assessed as increase in caspase 3 level at 0.05 to 0.2 uM incubated for 48 hrs by Western blot analysis; assay type: functional, cell-based; conditions: dose 0.05-0.2 µM
[12] = tested on: MCF7; assay: Induction of ferroptosis in human MCF7 cells assessed as reduction in GPX4 expression at 0.05 to 0.2 uM incubated for 48 hrs by Western blot analysis; assay type: functional, cell-based; conditions: dose 0.05-0.2 µM
[13] = tested on: MCF7; assay: Induction of apoptosis in human MCF7 cells assessed as viable cells at 0.05 uM by Annexin V-FITC/PI staining based flow cytometric analysis (reference value: 92.01 %); assay type: functional; conditions: read-out: Activity
[14] = tested on: MCF7; assay: Induction of apoptosis in human MCF7 cells assessed as early apoptotic cells at 0.05 uM by Annexin V-FITC/PI staining based flow cytometric analysis (reference value: 5.75 %); assay type: functional
[15] = tested on: MCF7; assay: Induction of apoptosis in human MCF7 cells assessed as late apoptotic cells at 0.05 uM by Annexin V-FITC/PI staining based flow cytometric analysis (reference value: 1.97 %); assay type: functional
[16] = tested on: MCF7; assay: Induction of apoptosis in human MCF7 cells assessed as necrotic cells at 0.05 uM by Annexin V-FITC/PI staining based flow cytometric analysis (reference value: 0.27 %); assay type: functional
[17] = tested on: MCF7; assay: Induction of apoptosis in human MCF7 cells assessed as viable cells at 0.1 uM by Annexin V-FITC/PI staining based flow cytometric analysis (reference value: 92.01 %); assay type: functional; conditions: read-out: Activity
[18] = tested on: MCF7; assay: Induction of apoptosis in human MCF7 cells assessed as early apoptotic cells at 0.1 uM by Annexin V-FITC/PI staining based flow cytometric analysis (reference value: 5.75 %); assay type: functional
[19] = tested on: MCF7; assay: Induction of apoptosis in human MCF7 cells assessed as late apoptotic cells at 0.1 uM by Annexin V-FITC/PI staining based flow cytometric analysis (reference value: 1.97 %); assay type: functional
[20] = tested on: MCF7; assay: Induction of apoptosis in human MCF7 cells assessed as necrotic cells at 0.1 uM by Annexin V-FITC/PI staining based flow cytometric analysis (reference value: 0.27 %); assay type: functional
[21] = tested on: MCF7; assay: Induction of apoptosis in human MCF7 cells assessed as viable cells at 0.2 uM by Annexin V-FITC/PI staining based flow cytometric analysis (reference value: 92.01 %); assay type: functional; conditions: read-out: Activity
[22] = tested on: MCF7; assay: Induction of apoptosis in human MCF7 cells assessed as early apoptotic cells at 0.2 uM by Annexin V-FITC/PI staining based flow cytometric analysis (reference value: 5.75 %); assay type: functional
[23] = tested on: MCF7; assay: Induction of apoptosis in human MCF7 cells assessed as late apoptotic cells at 0.2 uM by Annexin V-FITC/PI staining based flow cytometric analysis (reference value: 1.97 %); assay type: functional
[24] = tested on: MCF7; assay: Induction of apoptosis in human MCF7 cells assessed as necrotic cells at 0.2 uM by Annexin V-FITC/PI staining based flow cytometric analysis (reference value: 0.27 %); assay type: functional

C[C@H]1[C@@H](OCCNCCO[C@H]2O[C@@H]3O[C@@]4(C)CC[C@H]5[C@H](C)CC[C@@H]([C@H]2C)[C@@]35OO4)O[C@@H]2O[C@@]3(C)CC[C@H]4[C@H](C)CC[C@@H]1[C@@]24OO3 showed an IC50 [1] of 3.14 µM.
For C[C@H]1[C@@H](OCCN(CCO[C@H]2O[C@@H]3O[C@@]4(C)CC[C@H]5[C@H](C)CC[C@@H]([C@H]2C)[C@@]35OO4)CCO[C@H]2O[C@@H]3O[C@@]4(C)CC[C@H]5[C@H](C)CC[C@@H]([C@H]2C)[C@@]35OO4)O[C@@H]2O[C@@]3(C)CC[C@H]4[C@H](C)CC[C@@H]1[C@@]24OO3, the IC50 [1] was 0.09 µM, the Activity [2] was “Active” and the Activity [3] was “Active”. For the same compound, the Activity [4] was “Active”, the inhibition [5] was “Active” and the inhibition [6] was “Dose-dependent-effect”. For the same compound, the Activity [7] was “Active”, the Activity [8] was “Active; Partial Loss Of Membrane Potential Observed” and the Activity [9] was “Active; Partial Loss Of Membrane Potential Observed”. The Activity [10] was “Active”, the Activity [11] was “Active” and the Activity [12] was “Active”. The viability at 0.05 µM [13] was 76.5%, the Activity [14] was 13.23% and the Activity [15] was 9.54%. For the same compound, the Activity [16] was 0.74%, the viability at 0.1 µM [17] was 74.4% and the Activity [18] was 14.22%. The Activity [19] was 10.27%, the Activity [20] was 1.14% and the viability at 0.2 µM [21] was 62.5%. For the same compound, the Activity [22] was 16.86%, the Activity [23] was 20.21% and the Activity [24] was 0.48%.
With Nc1ccn([C@@H]2O[C@H](CO)[C@@H](O)C2(F)F)c(=O)n1 [GEMCITABINE] the IC50 [1] was 4.33 µM.
With C[C@H]1[C@@H](O)O[C@@H]2O[C@@]3(C)CC[C@H]4[C@H](C)CC[C@@H]1[C@@]24OO3 [ARTENIMOL] the IC50 [1] was > 10 µM.
With C[C@H]1[C@@H](OCCN)O[C@@H]2O[C@@]3(C)CC[C@H]4[C@H](C)CC[C@@H]1[C@@]24OO3 the IC50 [1] was > 10 µM.
